Experimental data from patent publication US20260345619A1 (Principia Biopharma Inc., priority 2023, published 2026).

Test: Asthma Quality of Life Questionnaire with Standardized Activities (AQLQ(S))
Format: in vivo, human
Source text: The AQLQ(S) is a self-administered patient reported outcome to measure the functional impairments that are most troublesome to adolescents and adults ≥12 years of age as a result of their asthma.
Asthma Quality of Life Questionnaire with Standardized Activities (AQLQ(S)) self-administered (≥12 years)
The AQLQ(S) was designed as a self-administered patient reported outcome to measure the functional impairments that are most troublesome to adolescents and adults ≥12 years of age as a result of their asthma. The instrument is comprised of 32 items, each rated on a 7-point Likert scales from 1 to 7. The AQLQ(S) has 4 domains. The domains and the number of items in each domain are as follows: • Symptoms (12 items) • Activity limitation (11 items) • Emotional function (5 items) • Environmental stimuli (4 items)
A global score is calculated ranging from 1 to 7 and a score by domain. Higher scores indicate better quality of life. […] Patients were to complete the questionnaire in an electronic diary during on-site visits.
Secondary endpoints included pre-bronchodilator FEV1 change from baseline at EOT, ACQ-5 score change from baseline, and AQLQ score change from baseline. Other secondary and exploratory endpoints are described in Table 2.

[1] = 400 mg TID, observed/LOCF imputed, n=53, mITT

Compound: CC(C)(C=C(C#N)C(=O)N1CCC[C@@H](n2nc(-c3ccc(Oc4ccccc4)cc3F)c3c(N)ncnc32)C1)N1CCN(C2COC2)CC1 (mixture of isomers) [rilzabrutinib, (R)-2-[3-[4-amino-3-(2-fluoro-4-phenoxy-phenyl)pyrazolo[3,4-d]pyrimidin-1-yl]piperidine-1-carbonyl]-4-methyl-4-[4-(oxetan-3-yl)piperazin-1-yl]pent-2-enenitrile]
- AQLQ global score change from baseline at Week 12, LS Mean Diff vs. placebo (400 mg TID, mITT, all others than low EOS and low FeNO): 0.35
- AQLQ global score change from baseline at Week 12, LS Mean Diff vs. placebo (400 mg TID, mITT, atopic medical conditions: no): 0.37
- AQLQ global score change from baseline at Week 12, LS Mean Diff vs. placebo (400 mg TID, mITT, atopic medical conditions: yes): 0.13
- AQLQ global score change from baseline at Week 12, LS Mean Diff vs. placebo (400 mg TID, mITT, background ICS dose high): 0.26
- AQLQ global score change from baseline at Week 12, LS Mean Diff vs. placebo (400 mg TID, mITT, background ICS dose medium): 0.31
- AQLQ global score change from baseline at Week 12, LS Mean Diff vs. placebo (400 mg TID, mITT, baseline ACQ-5 score >2): 0.38
- AQLQ global score change from baseline at Week 12, LS Mean Diff vs. placebo (400 mg TID, mITT, baseline ACQ-5 score ≤2): 0.29
- AQLQ global score change from baseline at Week 12, LS Mean Diff vs. placebo (400 mg TID, mITT, baseline BMI <25 kg/m^2): 0.56
- AQLQ global score change from baseline at Week 12, LS Mean Diff vs. placebo (400 mg TID, mITT, baseline BMI ≥25-<30 kg/m^2): 0.47
- AQLQ global score change from baseline at Week 12, LS Mean Diff vs. placebo (400 mg TID, mITT, baseline BMI ≥30 kg/m^2): −0.01
- AQLQ global score change from baseline at Week 12, LS Mean Diff vs. placebo (400 mg TID, mITT, baseline FEV1 reversibility <12%): 0.12
- AQLQ global score change from baseline at Week 12, LS Mean Diff vs. placebo (400 mg TID, mITT, baseline FEV1 reversibility ≥12%): 0.32
- AQLQ global score change from baseline at Week 12, LS Mean Diff vs. placebo (400 mg TID, mITT, baseline FeNO <25 ppb): 0.15
- AQLQ global score change from baseline at Week 12, LS Mean Diff vs. placebo (400 mg TID, mITT, baseline FeNO <35 ppb): 0.18
- AQLQ global score change from baseline at Week 12, LS Mean Diff vs. placebo (400 mg TID, mITT, baseline FeNO ≥25 ppb): 0.44
- AQLQ global score change from baseline at Week 12, LS Mean Diff vs. placebo (400 mg TID, mITT, baseline FeNO ≥35 ppb): 0.45
- AQLQ global score change from baseline at Week 12, LS Mean Diff vs. placebo (400 mg TID, mITT, baseline IgA <median 2190 mg/L): 0.50
- AQLQ global score change from baseline at Week 12, LS Mean Diff vs. placebo (400 mg TID, mITT, baseline IgA ≥median 2190 mg/L): 0.08
- AQLQ global score change from baseline at Week 12, LS Mean Diff vs. placebo (400 mg TID, mITT, baseline IgE <100 IU/mL): 0.46
- AQLQ global score change from baseline at Week 12, LS Mean Diff vs. placebo (400 mg TID, mITT, baseline IgE <median 121.85 IU/mL): 0.60
- AQLQ global score change from baseline at Week 12, LS Mean Diff vs. placebo (400 mg TID, mITT, baseline IgE ≥100 IU/mL): 0.16
- AQLQ global score change from baseline at Week 12, LS Mean Diff vs. placebo (400 mg TID, mITT, baseline IgE ≥median 121.85 IU/mL): −0.02
- AQLQ global score change from baseline at Week 12, LS Mean Diff vs. placebo (400 mg TID, mITT, baseline blood eosinophil level 1 <0.15 10^9/L): 0.07
- AQLQ global score change from baseline at Week 12, LS Mean Diff vs. placebo (400 mg TID, mITT, baseline blood eosinophil level 1 ≥0.15-<0.3 10^9/L): 0.32
- AQLQ global score change from baseline at Week 12, LS Mean Diff vs. placebo (400 mg TID, mITT, baseline blood eosinophil level 1 ≥0.3 10^9/L): 0.70
- AQLQ global score change from baseline at Week 12, LS Mean Diff vs. placebo (400 mg TID, mITT, baseline blood eosinophil level 2 <0.3 10^9/L): 0.17
- AQLQ global score change from baseline at Week 12, LS Mean Diff vs. placebo (400 mg TID, mITT, baseline blood eosinophil level 2 ≥0.3 10^9/L): 0.70
- AQLQ global score change from baseline at Week 12, LS Mean Diff vs. placebo (400 mg TID, mITT, baseline percent predicted FEV1 <77%): 0.42
- AQLQ global score change from baseline at Week 12, LS Mean Diff vs. placebo (400 mg TID, mITT, baseline percent predicted FEV1 <80%): 0.35
- AQLQ global score change from baseline at Week 12, LS Mean Diff vs. placebo (400 mg TID, mITT, baseline percent predicted FEV1 ≥77%): 0.16
- AQLQ global score change from baseline at Week 12, LS Mean Diff vs. placebo (400 mg TID, mITT, baseline percent predicted FEV1 ≥80%): 0.27
- AQLQ global score change from baseline at Week 12, LS Mean Diff vs. placebo (400 mg TID, mITT, baseline pre-bronchodilator FEV1 <2.1955 L): 0.28
- AQLQ global score change from baseline at Week 12, LS Mean Diff vs. placebo (400 mg TID, mITT, baseline pre-bronchodilator FEV1 ≥2.1955 L): 0.27
- AQLQ global score change from baseline at Week 12, LS Mean Diff vs. placebo (400 mg TID, mITT, baseline weight <60 kg): −0.08
- AQLQ global score change from baseline at Week 12, LS Mean Diff vs. placebo (400 mg TID, mITT, baseline weight ≥60-<90 kg): 0.41
- AQLQ global score change from baseline at Week 12, LS Mean Diff vs. placebo (400 mg TID, mITT, baseline weight ≥90 kg): 0.17
- AQLQ global score change from baseline at Week 12, LS Mean Diff vs. placebo (400 mg TID, mITT, female): 0.32
- AQLQ global score change from baseline at Week 12, LS Mean Diff vs. placebo (400 mg TID, mITT, former smokers): −0.02
- AQLQ global score change from baseline at Week 12, LS Mean Diff vs. placebo (400 mg TID, mITT, low EOS (<0.15) and low FeNO (<25)): 0.10
- AQLQ global score change from baseline at Week 12, LS Mean Diff vs. placebo (400 mg TID, mITT, male): 0.15
- AQLQ global score change from baseline at Week 12, LS Mean Diff vs. placebo (400 mg TID, mITT, never smokers): 0.34
- AQLQ global score non-responders at Week 12, number [1]: 24
- AQLQ global score non-responders at Week 12, percentage [1]: (45.3) (22/2)
- participants with AQLQ improvement of at least 0.5 from baseline at Week 12 (400 mg TID, placebo 40.3%, p=0.0456): 54.7%
- AQLQ(S) Activity limitation score, Mean (Week 4, 400 mg BID, mITT): 5.48
- AQLQ(S) Activity limitation score, Median (Week 4, 400 mg BID, mITT): 5.55
- AQLQ(S) Activity limitation score, change from baseline, LS Mean (Week 4, 400 mg BID, mITT): 0.72
- AQLQ(S) Activity limitation score, change from baseline, Mean (Week 4, 400 mg BID, mITT): 0.73
- AQLQ(S) Activity limitation score, change from baseline, Median (Week 4, 400 mg BID, mITT): 0.55
- AQLQ(S) Emotional function score, Mean (Week 4, 400 mg BID, mITT): 5.85
- AQLQ(S) Emotional function score, Median (Week 4, 400 mg BID, mITT): 6.40
- AQLQ(S) Emotional function score, change from baseline, LS Mean (Week 4, 400 mg BID, mITT): 0.77
- AQLQ(S) Emotional function score, change from baseline, Mean (Week 4, 400 mg BID, mITT): 0.61
- AQLQ(S) Emotional function score, change from baseline, Median (Week 4, 400 mg BID, mITT): 0.40
- AQLQ(S) Environmental stimuli score, Mean (Week 4, 400 mg BID, mITT): 5.13
- AQLQ(S) Environmental stimuli score, change from baseline, LS Mean (Week 4, 400 mg BID, mITT): 0.60
- AQLQ(S) Environmental stimuli score, change from baseline, Mean (Week 4, 400 mg BID, mITT): 0.67
- AQLQ(S) Environmental stimuli score, change from baseline, Median (Week 4, 400 mg BID, mITT): 0.50
- AQLQ(S) Global score, Mean (Week 4, 400 mg BID, mITT): 5.63
- AQLQ(S) Global score, Median (Week 4, 400 mg BID, mITT): 5.69
- AQLQ(S) Global score, change from baseline, LS Mean (Week 4, 400 mg BID, mITT): 0.80
- AQLQ(S) Global score, change from baseline, Mean (Week 4, 400 mg BID, mITT): 0.73
- AQLQ(S) Global score, change from baseline, Median (Week 4, 400 mg BID, mITT): 0.69
- AQLQ(S) Symptoms score, Mean (Week 4, 400 mg BID, mITT): 5.83
- AQLQ(S) Symptoms score, Median (Week 4, 400 mg BID, mITT): 6.00
- AQLQ(S) Symptoms score, change from baseline, LS Mean (Week 4, 400 mg BID, mITT): 0.92
- AQLQ(S) Symptoms score, change from baseline, Mean (Week 4, 400 mg BID, mITT): 0.80
- AQLQ(S) Symptoms score, change from baseline, Median (Week 4, 400 mg BID, mITT): 0.75
- AQLQ(S) Environmental stimuli score, change from baseline, LS Mean Diff vs. placebo (Week 4, 400 mg BID, mITT, 95% CI 0.02, 1.49): 0.76
- AQLQ(S) Activity limitation score, change from baseline, LS Mean Diff vs. placebo (Week 4, 400 mg BID, mITT, 95% CI 0.26, 1.24): 0.75
- AQLQ(S) Emotional function score, change from baseline, LS Mean Diff vs. placebo (Week 4, 400 mg BID, mITT, 95% CI 0.30, 1.74): 1.02
- AQLQ(S) Global score, change from baseline, LS Mean Diff vs. placebo (Week 4, 400 mg BID, mITT, 95% CI 0.34, 1.34): 0.84
- AQLQ(S) Symptoms score, change from baseline, LS Mean Diff vs. placebo (Week 4, 400 mg BID, mITT, 95% CI 0.41, 1.32): 0.86
